Where two headings read alike, the source gives them in different places.
Key:
human MGL (hMGL) = biological target: T1, human MGL (hMGL) (Homo sapiens, UniProt Q99685); assay: Fluorescent assay for human MGL inhibition; type: biochemical; conditions: for hMGL inhibition: at concentrations up to 10 μM, known commercial ligands
T1 construct: made in house; host or cells: E. coli (lysate)
T1 sequence (Q99685 1-303): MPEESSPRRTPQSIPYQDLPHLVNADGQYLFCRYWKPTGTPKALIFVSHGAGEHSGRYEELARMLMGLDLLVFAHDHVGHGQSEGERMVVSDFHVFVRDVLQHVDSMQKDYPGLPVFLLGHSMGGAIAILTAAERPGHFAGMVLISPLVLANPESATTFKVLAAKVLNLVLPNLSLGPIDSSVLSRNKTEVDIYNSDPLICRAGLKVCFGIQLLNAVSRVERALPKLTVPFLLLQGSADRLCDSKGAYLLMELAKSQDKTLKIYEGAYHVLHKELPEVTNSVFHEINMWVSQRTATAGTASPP
Method: Fluorescent assay protocol for human MGL. Compound inhibition of hMGL activity was assessed by a fluorometric assay. The assay was carried out in a 96-well plate format and hMGL was monitored by the hydrolysis of the substrate […] or the substrate valeroyl-7-hydroxy-6-methoxy-4-methylcoumarin ester (VHMMCE) to form the fluorescent product, coumarin. Briefly, various concentrations of each compound were preincubated with hMGL (175 ng of total protein in E. coli lysate containing hMGL) for 15 minutes at room temperature. Upon the addition of the substrate, the reaction was incubated at […] for 120 minutes; fluorescence readings were taken every 15 minutes at 360 nm/460 nm (2excitation/λmission) using a Synergy HT Plate Reader (Bio-Tek, Winooski, Vt.). Under the incubation conditions, negligible substrate hydrolysis was observed. External standards were used to convert relative fluorescence units to the amount of 4-methylcoumarin formed. hMGL assays were performed in triplicate for each inhibitor concentration, and IC50 values were determined using Prizm software (FIGS. 1A-1G).

human CB1 (hCB1) = human CB1 (hCB1) (Homo sapiens, UniProt P21554); assay: Competition binding assay, [3H]CP55,940 displacement, hCB1 HEK293 membranes; conditions: up to 100 nM; [3H]CP55,940 0.7 nM; 37 °C, 60 min
Method: Cell membrane preparation. Fresh or frozen HEK293 cell pellets (2×10^8 cells expressing human CB1 (hCB1) or rat CB1 (rCB1)) were resuspended in 5 ml of TME [25 mM Tris, 5 mM MgCl2, 1 mM EDTA pH 7.4] supplemented with 0.5% protease inhibitor cocktail (Sigma, St Louis, MO, USA). Cells were lysed under nitrogen cavitation for 30 min at 1000 psi on ice, centrifuged at 1000 g for 10 min, and the supernatant was collected. The pellet was washed three times with 10 ml of TME containing protease inhibitors and the combined supernatant was centrifuged at 100,000 g for 45 min at 4 °C. The resultant membrane pellet was used immediately or stored at −80 °C. Protein concentration for the resulting membrane fraction was obtained using Bradford Assay.
Competition Binding Assay. Competition binding assays were performed in a 96-well format. Assays were carried out using [3H] CP55,940 and Tris binding buffer (50 mM Tris-HCl, 50 mM Tris-base, 0.1% BSA, pH 7.4), up to a total assay volume of 500 μL. The concentration of [^3H]CP55,940 used in our displacement assays was 0.7 nM. […] Radioactivity was quantified by liquid scintillation spectrometry. […] Ki values were determined by fitting the data to non-linear regression curve using Graph Pad Prism software.

hCB1 receptors = biological target: T2, hCB1 receptors (Homo sapiens, UniProt P21554); assay: CB1 cAMP assay (inhibition of forskolin-stimulated cAMP accumulation); type: cell-based; conditions: for EC50: EC50 of 2-AG + Compound (1 μM), 2-AG in presence of 1 μM compound, forskolin 2 μM, HEK293 and/or CHO hCB1
T2 construct: expressed in transfected cells
Method: CB1 cAMP assays. Compounds are evaluated for their ability to modulate the actions of orthosteric ligands at CB1 receptor sites. HEK293 and/or CHO cells stably expressing hCB1 receptors were used for the studies. The CAMP assay was carried out using Perkin Elmer's Lance Ultra cAMP kit following the protocol as described in J Biomol Screen 1999, 4, (6), 303-308. The assays are carried out in a 384-well format using 1000-1500 cells/well. The cells are harvested with non-enzymatic cell dissociation reagent Versene, washed once with Hanks' Balanced Salt Solution (HBSS), and resuspended in the stimulation buffer. […] After 30 minutes of stimulation at room temperature, the Eu-CAMP tracer working solution (5 μL) and Ulight-anti-cAMP working solution (5 μL) are added to the plate and incubated at room temperature for 60 minutes. The data are collected via PerkinElmer Envision plate reader. The EC50 values are determined by nonlinear regression analysis using GraphPad Prism software (FIGS. 2A-2H).

[1] = Kinetic aqueous solubility by laser-based nephelometry; type: physicochemical; conditions: PBS buffer pH 7.4, 120 min, room temperature; relative to ZCZ011
Method: Aqueous solubility assays. The kinetic aqueous solubility of the compounds is determined using laser-based nephelometry. Linear serial dilutions of each compound are prepared in PBS buffer (pH=7.4) from DMSO stock solution (10 mM) in a 384-well plate. The compound solutions are mixed and incubated for 120 minutes at room temperature, followed by approximating the precipitation points for each compound using light scattering (laser-based BMG Labtech NEPHELOstar PLUS microplate nephelometer). In some aspects, the final solutions may contain 0 mM, 55 mM, 135 mM, or 500 mM of mannitol.

[2] = hMGL in E. coli lysate, 15 min preincubation, AHMMCE or VHMMCE substrate, read-out: MGL inhibition IC50

T2 sequence (P21554 whole entry): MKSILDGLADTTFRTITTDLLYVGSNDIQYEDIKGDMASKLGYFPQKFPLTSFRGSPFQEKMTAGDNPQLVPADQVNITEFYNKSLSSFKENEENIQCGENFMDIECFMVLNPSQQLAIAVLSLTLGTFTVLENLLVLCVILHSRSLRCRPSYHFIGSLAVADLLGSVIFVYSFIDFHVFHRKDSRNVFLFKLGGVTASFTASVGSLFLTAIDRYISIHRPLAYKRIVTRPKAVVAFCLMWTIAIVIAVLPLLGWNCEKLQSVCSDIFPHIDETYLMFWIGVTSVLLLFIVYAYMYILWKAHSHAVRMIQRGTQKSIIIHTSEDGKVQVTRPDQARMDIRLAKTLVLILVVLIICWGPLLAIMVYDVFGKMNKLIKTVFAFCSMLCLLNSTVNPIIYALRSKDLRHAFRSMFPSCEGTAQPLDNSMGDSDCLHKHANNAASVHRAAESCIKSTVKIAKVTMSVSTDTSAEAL
human CB1 (hCB1), sequence (P21554 whole entry): as above

Structure (SMILES)	IC50 (human MGL (hMGL); [2]) [nM]	EC50 (hCB1 receptors) [nM]	other results
Cc1ccc2c(C(C[N+](=O)[O-])c3cccs3)c(-c3ccccc3)[nH]c2c1 (stereo not drawn) [ZCZ011, 6-methyl-3-(2-nitro-1-(thiophen-2-yl)ethyl)-2-phenyl-1H-indole, reference compound]	–	–	hMGL inhibition (human MGL (hMGL)): did not show any hMGL inhibition at concentrations up to 10 μM
O=[N+]([O-])CC(c1ccc(N=C=S)cc1)c1c(-c2ccccc2)[nH]c2ccccc12 (stereo not drawn) [Compound 10, 3-(1-(4-isothiocyanatophenyl)-2-nitroethyl)-2-phenyl-1H-indole]	1160	–	–
O=[N+]([O-])CC(c1ccc(B(O)O)cc1)c1c(-c2ccccc2)[nH]c2ccccc12 (stereo not drawn) [Compound 1, (4-(2-nitro-1-(2-phenyl-1H-indol-3-yl)ethyl)phenyl)boronic acid]	63.5	102	competition with CP-55,940 (human CB1 (hCB1)): do not compete with CP-55,940; aqueous solubility compared to ZCZ011 [1]: > 100 fold
O=[N+]([O-])CC(c1ccccc1)c1c(-c2ccc(B(O)O)cc2)[nH]c2ccccc12 (stereo not drawn) [Compound 5, (4-(3-(2-nitro-1-phenylethyl)-1H-indol-2-yl)phenyl)boronic acid]	–	57	–
O=[N+]([O-])C[C@@H](c1ccc(B(O)O)cc1)c1c(-c2ccccc2)[nH]c2ccccc12 (single isomer, unassigned) [Compound 3]	58.8	37.5	allosteric modulation of 2-AG and CP-55,940 at CB1 (hCB1 receptors; in words): positive allosteric modulator of both 2-AG and CP-55,940; increase of potency of 2-AG at CB1 (hCB1 receptors; orthosteric ligand 2-AG, positive allosteric modulator): ~ 2 fold; increase of potency of CP-55,940 at CB1 (hCB1 receptors; orthosteric ligand CP-55,940, positive allosteric modulator): ~ 2 fold
O=[N+]([O-])CC(c1ccccc1)c1c(-c2ccccc2)[nH]c2cc(B(O)O)ccc12 (stereo not drawn) [Compound 8, (3-(2-nitro-1-phenylethyl)-2-phenyl-1H-indol-6-yl)boronic acid]	46.8	–	–
O=[N+]([O-])CC(c1ccccc1)c1c(-c2ccc(S(=O)(=O)F)cc2)[nH]c2ccccc12 (stereo not drawn) [Compound 9, 4-(3-(2-nitro-1-phenylethyl)-1H-indol-2-yl)benzenesulfonyl fluoride]	–	–	IC50 (human MGL (hMGL)): 32.3 nM
O=[N+]([O-])CC(c1ccc(B(O)O)cc1)c1c(-c2ccc(N=C=S)cc2)[nH]c2ccccc12 (stereo not drawn) [Compound 6, (4-(1-(2-(4-isothiocyanatophenyl)-1H-indol-3-yl)-2-nitroethyl)phenyl)boronic acid]	–	57.2	–
O=[N+]([O-])CC(c1ccccc1)c1c(-c2ccccc2)[nH]c2ccccc12 (stereo not drawn) [GAT211, 3-(2-nitro-1-phenylethyl)-2-phenyl-1H-indole, reference compound]	–	–	hMGL inhibition (human MGL (hMGL)): did not show any hMGL inhibition at concentrations up to 10 μM
O=[N+]([O-])C[C@H](c1ccc(B(O)O)cc1)c1c(-c2ccccc2)[nH]c2ccccc12 (single isomer, unassigned) [Compound 2]	271	51.3	–
O=[N+]([O-])CC(c1cccc(B(O)O)c1)c1c(-c2ccccc2)[nH]c2ccccc12 (stereo not drawn) [Compound 4, (3-(2-nitro-1-(2-phenyl-1H-indol-3-yl)ethyl)phenyl)boronic acid]	979	40.8	competition with CP-55,940 (human CB1 (hCB1)): do not compete with CP-55,940

From patent publication US20260364098A1, “HETEROARYL COMPOUNDS AS ENDOCANNABINOID SYSTEM MODULATORS AND USES THEREOF” (Northeastern University, priority 2023, published 2026)
